Reference: US6548062B2, “Method of treating cancer with anti-neurotrophin agents” (Cephalon, Inc., priority 2000, dated 2003)

Legend:
[1] = test system: PC-3 human prostate tumor cells; assay: PC-3 prostate cancer xenograft growth in nude mice; type: in vivo, human tumor cells in athymic nude mice; conditions: 10 mg/kg s.c. BID
Description: PC-3 human prostate tumor cells (5×10^6 cells/mice) were injected subcutaneously into the flank of eight to ten week old, female athymic nude mice (nu/nu; Charles River, Raleigh, N.C.). Mice weighed between 22-25 grams on the day of tumor implantation. Upon xenografts reaching 100-500 mm^3, the mice were randomized and divided into experimental groups. Some experimental groups were administered a cocktail of neurotrophin antibodies (4×25 μg each, or 4×100 μg each of anti-NGF, BDNF, NT-3, and NT4/5) or normal rabbit IgG (100 μg or 400 μg; PeproTech 500-P00) in sterile 1×PBS (total volume of 100 μl). All antibodies were administered intratumorally (50 μl) at five injection sites and peritumorally, subcutaneously (50 μl) at five injection sites. […] Tumor length and width were measured every two to three days. […] Tumor length and width were measured every two to three days (days 1, 3, 5, 8, 10, 12, 15, 17, 19 and 22).
Tumor volumes were calculated as (length×width (length+width)/2))×0.526 (Isaacs, Canc. […] The mean tumor volumes and standard errors were calculated (SigmaStat, Jandel Scientific, San Rafel, Calif.). […] Relative tumor volumes were calculated as (mean vt mean vo), where vt refers to tumor volume on a given day and vo is the volume of the same tumor at initiation of dosing (day 1). […] Probability values were calculated by the Mann-Whitney Rank Sum Test (SigmaStat).

trkA = trkA (Homo sapiens, UniProt P04629); conditions: ELISA (stated for CEP-751); read-out: IC50 trkA inhibition; cited from earlier work
[2] = test system: TSU-Pr1 human prostate tumor cells; assay: TSU-Pr1 prostate cancer xenograft growth in nude mice; type: in vivo; conditions: Experiment #1
Description: (§1) TSU-Pr1 human prostate tumor cells were injected subcutaneously into the flank of female athymic nude mice (nu/nu; 5×10^6 cells/mice). Upon xenografts reaching 100-500 mm^3, the mice were randomized and divided into four experimental groups. One group was administered a cocktail of neurotrophin antibodies (anti-NGF, BDNF, NT-3, and NT4/5). Each dose of antibody cocktail (100 μl) contained 100 μg of each neurotrophin antibody. The second experimental group was administered normal rabbit IgG (400 μg/100 μl; PeproTech 500-P00) as a control. All antibodies were administered intratumorally (50 μl) at five injection sites and peritumorally (50 μl) at five injection sites. […] Tumor length and width were measured every two to three days (Days 1, 3, 5, 8, 10, 12, and 15).
The fourth experimental group received vehicle only (100 μl) according to the dosing schedule of the third experimental group. Tumor length and width were measured every two to three days (Days 1, 3, 5, 8, 10, 12, and 15).
Tumor volumes were calculated as described above. The mean tumor volumes and standard errors were calculated as described above. […] Probability values were calculated as described above. […]
Tumor volumes were calculated as described above. The mean tumor volumes and standard errors were also calculated as described above. […] Probability values were calculated as described above.

[3] = test system: CFPAC human pancreatic carcinoma cells; conditions: previously published data; cited from earlier work
[4] = test system: AsPC-1 human pancreatic tumor cells; assay: AsPC-1 pancreatic cancer xenograft growth in nude mice; type: in vivo
Description: as §1, with “AsPC-1” for “TSU-Pr1”, “pancreatic” for “prostate”, “15). […]” for “15).”
Tumor volumes were calculated as described above. The mean tumor volumes and standard errors were also calculated as described above. […] Probability values were calculated as described above. […]
Tumors were measured every 2-4 days using a vernier caliper. Tumor volumes were calculated as described above. The mean tumor volumes and standard errors were also calculated as described above. […] Statistical analyses were calculated as described above with p≦0.05 deemed significant. […]

[5] = test system: AsPC-1 human pancreatic tumor cells; conditions: previously published data; cited from earlier work

Chain of trkA (P04629 33-796, species assumed): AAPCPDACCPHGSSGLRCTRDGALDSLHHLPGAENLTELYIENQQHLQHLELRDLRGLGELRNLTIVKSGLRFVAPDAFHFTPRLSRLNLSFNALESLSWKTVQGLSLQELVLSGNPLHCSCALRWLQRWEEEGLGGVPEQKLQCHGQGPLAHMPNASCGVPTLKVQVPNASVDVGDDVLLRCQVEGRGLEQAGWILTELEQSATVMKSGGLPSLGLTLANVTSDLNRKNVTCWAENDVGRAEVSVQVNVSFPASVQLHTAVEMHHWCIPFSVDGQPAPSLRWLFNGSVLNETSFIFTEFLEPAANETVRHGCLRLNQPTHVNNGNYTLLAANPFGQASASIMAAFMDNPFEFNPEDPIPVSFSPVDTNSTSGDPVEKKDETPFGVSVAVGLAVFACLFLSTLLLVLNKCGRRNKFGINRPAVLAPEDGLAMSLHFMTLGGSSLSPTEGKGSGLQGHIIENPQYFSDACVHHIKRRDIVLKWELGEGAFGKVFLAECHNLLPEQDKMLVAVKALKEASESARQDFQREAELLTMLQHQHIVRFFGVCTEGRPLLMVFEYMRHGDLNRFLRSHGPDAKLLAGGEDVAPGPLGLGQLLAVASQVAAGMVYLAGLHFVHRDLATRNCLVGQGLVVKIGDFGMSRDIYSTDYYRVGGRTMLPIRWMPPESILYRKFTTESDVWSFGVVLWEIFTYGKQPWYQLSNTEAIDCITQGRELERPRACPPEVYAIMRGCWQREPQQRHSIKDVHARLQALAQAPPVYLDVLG

## CO[C@]1(CO)C[C@H]2O[C@]1(C)n1c3ccccc3c3c4c(c5c6ccccc6n2c5c31)C(=O)NC4 [CEP-751]
[1]; 22 days
  Growth of PC-3 tumors relative to vehicle control: inhibited the growth of PC-3 tumors
[1]; day 19
  Minimum T/C (absolute tumor volumes vs vehicle control): 0.44
trkA
  IC50: 3 nM

## C[C@]12O[C@H](C[C@]1(O)CO)n1c3ccccc3c3c4c(c5c6ccccc6n2c5c31)CNC4=O [CEP-701]
[2]; 10 mg/kg sc BID, Days 12 and 15
  Minimum T/C (absolute tumor volumes vs vehicle control): 0.29
[2]; nude mice bearing TSU-Pr1 xenografts
  Tolerability (deaths or morbidity): well tolerated
[3]
  CFPAC tumor growth: insensitive
[4]; 10 mg/kg sc BID, Day 15
  Minimum T/C (absolute tumor volumes vs vehicle control): 0.27
[4]; nude mice bearing AsPC-1 xenografts
  Tolerability (deaths or morbidity): well tolerated
[5]
  Growth of AsPC-1 tumors: inhibited
